Experimental data published in the NIST ThermoML archive (doi:10.1021/acs.jced.5b00436).
Numbers after ± are expanded uncertainties.

Assay: refractive index (Na D-line) (dimensionless)
Details: 293.15 K; 101.33 kPa; Liquid; Standard Abbe refractometry

Row | refractive index | SMILES
1 | 1.3171 ± 0.0005 | OCC(F)(F)C(F)(F)C(F)(F)C(F)F [2,2,3,3,4,4,5,5-octafluoro-1-pentanol]
2 | 1.3616 ± 0.0005 | CCO [ethanol]
3 | 1.3328 ± 0.0005 | O [water]
